Common to all, as to experiment: DTP human tumour cell line panel, 48 h
Assay [1] relates to A498 renal.
In assay [2] the test system is EKVX NSCLC.
Assay [3] has as its system HOP-92 NSCLC.
Assay [4] deals with HT29 colon.
For assay [5], the system named is IGROV1 ovarian.
The subject of assay [6] is LOX IMVI melanoma.
Assay [7] relates to MCF7 breast.
Assay [8] relates to SK-MEL-2 melanoma.
Assay [9] has as its system SK-MEL-5 melanoma.
The test system of assay [10] is TK-10 renal.

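How tested: cells in 96-well plates exposed to compound for 48 hours at five concentrations. TGI: total growth inhibition.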

Consider four compounds from PubChem BioAssay (NCI).

Broadly, the TGI is the concentration at which net growth stops. A low value points to more potent growth arrest. On to `COC(=O)C1CCC(=O)N1C(c1ccc2c(c1)OCO2)c1cc(OC)c(OC)c(OC)c1` (stereo not given), for which the TGI in assay [1], in [2], in [3], in assay [4], in assay [5] and in assay [6] was over 100 µM in each case. Moreover, the TGI in [7], in assay [8], in [9] and in assay [10] was over 100 µM throughout.

Turning to `Cc1cc2c(cc1C)[n+](=O)c(C(=O)c1ccccc1)c(C(F)(F)F)n2[O-]`, the total growth inhibition concentration (TGI) in assay [1] was found to be 13.6 µM; in assay [2], 2.97 µM; in [3] it was 1.46 µM; in assay [4] it was 9.11 µM; in assay [5], 4.02 µM; in [6] it was 7.58 µM. Besides, the concentration for total growth inhibition (TGI) is 14.1 µM in [7], 19.7 µM in [8], 3.75 µM in assay [9] and 12.7 µM in [10].

For the compound `COc1ccc(CNc2cc(=O)n(C)c(=O)[nH]2)cc1`, the TGI in assay [1], in assay [2], in [3], in [4], in assay [5] and in assay [6] was over 100 µM in each case. Besides, the TGI in assay [7], in assay [8], in assay [9] and in assay [10] was over 100 µM throughout.

Consider `O=c1[nH]nc(-c2ccccc2)n1O`, for which the total growth inhibition concentration (TGI) in assay [1], in [2], in assay [3], in assay [4], in assay [5] and in assay [6] was over 100 µM in each case. Further, the concentration for total growth inhibition (TGI) in assay [7], in assay [8], in [9] and in assay [10] was over 100 µM in each case.
